# Test results from patent US11395835B2, “Use of common gamma chain cytokines for the visualization, isolation and genetic modification of memory T lymphocytes” (OSPEDALE SAN RAFFAELE S.R.L., priority 2005, dated 2022).
# Experiments:
# [1] = test system: CD4+ T cells from tumor-draining LN of TS/A-LACK tumor-bearing 16.2β mice; assay: IL-7-driven accumulation of fast-proliferating memory CD4+ T cells with inhibitors; assay type: cell-based; settings: IL-7-driven cultures, 7 days
# Text: FIG. 11. Intermediate memory CD4^+ T cells accumulate in the presence of IL-7 in a cell-density dependent, CsA-sensitive manner. Cells derived from the axillary, brachial and inguinal LN of naïve (A, B) and TS/A-LACK tumor-bearing (C-E) 16.20 mice were labeled with CFSE and respectively cultured for 7 days in plain medium, in the presence of LACK peptide (Ag) (A, B) or IL-7 (C-E) in the absence (nil) or in the presence of the indicated inhibitors. At the end of the culture the cells were stimulated for 5 h with L/28 aAPCs, and intracellular cytokine release was determined. A-D) Histograms show the CFSE dilution profile of equivalent numbers of (7×10^4) CD4^+ T cells. In A and C the thin lines reflect the CFSE profile of CD4+ T cells cultured in plain medium, while the thick lines depict the CFSE profile of CD4+ T cells cultured in Ag or IL-7, respectively. […]
# (§1) 5 μm polystyrene sulfate latex beads (Interfacial Dynamics) were coated with I-A^d/LACK dimers (20 μg/ml) and anti-CD28 mAb (37.51; 2 μg/ml) (LACK aAPC) or with anti-CD28 mAb only (control aAPC). Coating of the proteins was monitored by flow cytometry analysis. […] The total number of Ag-specific IL-2^+/IFN-γ^+ T cells was determined by multiplying the percentage by the total number of Trypan Blue-negative LN cells.
# [2] = test system: naïve CD4+ T cells of 16.2β mice stimulated with LACK-pulsed APC; assay: Ag-driven proliferation of naive T cells with inhibitors (CFSE); assay type: cell-based; settings: 7 days
# Text: FIG. 11. Intermediate memory CD4^+ T cells accumulate in the presence of IL-7 in a cell-density dependent, CsA-sensitive manner. Cells derived from the axillary, brachial and inguinal LN of naïve (A, B) and TS/A-LACK tumor-bearing (C-E) 16.20 mice were labeled with CFSE and respectively cultured for 7 days in plain medium, in the presence of LACK peptide (Ag) (A, B) or IL-7 (C-E) in the absence (nil) or in the presence of the indicated inhibitors. At the end of the culture the cells were stimulated for 5 h with L/28 aAPCs, and intracellular cytokine release was determined. A-D) Histograms show the CFSE dilution profile of equivalent numbers of (7×10^4) CD4^+ T cells. In A and C the thin lines reflect the CFSE profile of CD4+ T cells cultured in plain medium, while the thick lines depict the CFSE profile of CD4+ T cells cultured in Ag or IL-7, respectively. In B and D, thin line: cells cultured in the absence of the inhibitor, thick line: cells cultured in the presence of the inhibitor. E) Dot plots are shown after gating on viable CD4^+ T cells. Percentages indicate the frequency of LACK-specific cytokine secreting cells.
# (§2) Twenty days after tumor cell injection mice were sacrificed and the axillary, brachial and inguinal peripheral lymph nodes (LN) draining and distal (non draining LN) to the site of tumor growth were recovered. […]
# [3] = test system: AH-1-specific CD8+ T cells; assay: Cytokine-driven culture of tumor-draining LN, AH-1-specific intracellular cytokine release; assay type: cell-based, BALB/c mice; settings: 7 days culture without Ag re-stimulation; undetectable ex vivo
# Procedure: FIG. 10. IL-7 favors the accumulation of tumor-specific memory CD8^+ T cells otherwise undetectable ex vivo. A) BALB/c mice (5 mice per group) were challenged with 3×10^5 TS/A-LACK tumor cells and sacrificed 21 days later. Cells from pools of tumor draining LN (A-C) were analyzed ex vivo (A) and after 7 days in culture in the absence or in the presence of IL-7, IL-2, IL-15, IL-6 (B-C). A) Representative dot plots depict IL-2 and IFN-γ production by KJ1.26^− CD8^+ T cells. The frequency (A, B) and total number (C) of AH-1-specific cytokine-producing KJ1.26^− CD8^+ T cells is reported.
# as §2, with “recovered. In the experiments of dendritic cell (DC) vaccination, mice were sacrificed fourteen days after DC administration and the axillary, brachial and inguinal LN were surgically excised.” for “recovered.”
# as §1
# [4] = test system: LACK-specific CD4+ T cells from LN of TS/A-LACK tumor-bearing BALB/c mice; assay: Ag-free short-term culture: I-Ad/LACK multimer staining, LACK-specific intracellular cytokine release, CFSE dilution; assay type: cell-based; settings: CFSE-labeled LN cells, 7 days, versus nil cultures
# Procedure: Twenty days after tumor cell injection mice were sacrificed and the axillary, brachial and inguinal peripheral lymph nodes (LN) draining and distal (non draining LN) to the site of tumor growth were recovered. In the experiments of dendritic cell (DC) vaccination, mice were sacrificed fourteen days after DC administration and the axillary, brachial and inguinal LN were surgically excised. LN cells were cultured in 24 well plates at the density of 5×10^6 in complete medium in the absence or in the presence of recombinant murine IL-7 (200 ng/ml), IL-2 (20 ng/ml), IL-6 (45 ng/ml), or IL-15 (100 ng/ml) (all from Peprotech). In parallel cultures, cells were in vitro stimulated with the LACK-derived MHC II-restricted peptide (5 (25)) and 5×10^6 irradiated syngeneic splenocytes. As a control similar cultures were set up from syngeneic naïve mice. […]
# as §1
# [5] = test system: CD4+ T cells from TS/A-LACK tumor draining LN; assay: Bcl-2 expression in CFSE-labeled LN cultures maintained in cytokines; assay type: cell-based, mice; settings: 7 days culture with the cytokine alone
# Text: (§3) FIG. 5. IL-7 and IL-2 favor T cell survival and the optimal expression of Bcl-2. Cells from TS/A-LACK tumor draining LN were labeled with the CFSE vital dye and cultured in the absence (−) or in the presence of IL-7, IL-2, IL-15 and IL-6 alone. After 7 days, cells were recovered and stained with anti-CD4 mAb and TO-PRO-3 (A) and with anti-Bcl-2 mAb (B, C). A) representative dot plots of total CD4^+ cells are shown. The frequencies of total CD4^+ TOPRO-3^+ (brackets) and of CFSE dim, TO-PRO-3″ cells (bold) are reported. B-C) events are shown after physical gating on viable CD4^+ T lymphocytes. C) thin line: isotype control; thin lines-shaded profile: anti-Bcl-2 Ab, medium cultured cells; thick lines: anti-Bcl-2 Ab, cytokine-cultured cells. The experiment is representative of 2 independent determinations.
# FIG. 6. Phenotype and subset representation of lymphocytes maintained in IL-7 and IL-2. CFSE-labeled TS/A-LACK-tumor-draining LN cultures were maintained for a week in the presence of IL-7 or IL-2. Thereafter the cells were stained with anti CD4, CD44, CD25, CD127, and CD132 mAbs. A) representative dot plots report the expression levels of CD44, CD62L, CD25, CD127, and CD132 of viable CD4+. B) overlay of CD4^+, CFSE dim cells derived from IL-7 (thin lines) and IL-2 (thick lines) cultures in the absence of Ag-stimulation are shown. […]
# [6] = test system: CD4+ T cells from TS/A-LACK tumor draining LN; assay: TO-PRO-3 viability of CFSE-labeled LN cultures maintained in cytokines; assay type: cell-based, mice; settings: total CD4+ cells, after a week in culture with the cytokine alone
# Text: as §3
# as §2, with “recovered. In the experiments of dendritic cell (DC) vaccination, mice were sacrificed fourteen days after DC administration and the axillary, brachial and inguinal LN were surgically excised.” for “recovered.”
Molecule,effect on IL-7-driven accumulation of fast-dividing CFSEdim CD4+ T cells and LACK-specific cells [1],effect on Ag-driven T cell proliferation [2],frequency and total number of AH-1-specific CD8+ T cells [3],in vitro proliferation of CD4+ T cells and accumulation of LACK-specific CD4+ T cells [4],CD4+ T cells expressing optimal (high) Bcl-2 levels [5] [%],TO-PRO-3+ dead cells [6] [%]
CC(C)(C)n1nc(-c2ccc(Cl)cc2)c2c(N)ncnc21 [PP2],only partially inhibited,–,–,–,–,–
Oc1ccc(-c2nc(-c3ccncc3)c(-c3ccc(F)cc3)[nH]2)cc1 [SB202190],only partially inhibited,failed to inhibit,–,–,–,–
IL-6: recombinant IL-6 used as negative control cytokine,–,–,not increased,failed to support,10.5,73
